Seven compounds from PMC8741576 (Molecular Diversity, 2022) can be followed below.

Where two headings read alike, the source gives them in different places.

For assay [1], the system named is Capan-1 pancreatic adenocarcinoma cells. The assay is described as follows: Antiproliferative screening, MTS cell viability assay. The assay is classed as cell-based. The note with it: Homo sapiens.
Assay [2] relates to HEL 299 normal human lung fibroblasts. As to the kind of experiment: Antiproliferative screening on noncancerous cells. The note with it: Homo sapiens, HEL 299, read-out: IC50 HEL 299.
Assay [3] relates to DND-41 acute lymphoblastic leukemia cells. The assay is described as follows: Antiproliferative screening, IncuCyte cell growth. Format: cell-based. The note with it: Homo sapiens.
Assay [4] concerns Z-138 non-Hodgkin lymphoma cells. The assay is described as follows: Antiproliferative screening, IncuCyte cell growth. Format: cell-based. The note with it: Homo sapiens.
For assay [5], the system named is NCI-H460 lung carcinoma cells. The assay is described as follows: Antiproliferative screening, MTS cell viability assay. As to conditions: Homo sapiens. Format: cell-based.
Assay [6] deals with K-562 chronic myeloid leukemia cells. The assay is described as follows: Antiproliferative screening, IncuCyte cell growth. The assay is classed as cell-based. The note with it: Homo sapiens.
Assay [7] has as its system HL-60 acute myeloid leukemia cells. As to the kind of experiment: Antiproliferative screening, IncuCyte cell growth. Format: cell-based. As to conditions: Homo sapiens.
Assay [8] has as its system HCT-116 colorectal carcinoma cells. The assay is described as follows: Antiproliferative screening, MTS cell viability assay. Format: cell-based. The note with it: Homo sapiens.
For assay [9], the system named is LN-229 glioblastoma cells. The assay is described as above. Format: cell-based. As to conditions: Homo sapiens.
[10] abbreviates: CAPAN-1, 72 h, read-out: IC50 Capan-1.
The mark [11] stands for this setting: DND41, 72 h, read-out: IC50 DND-41.
[12] abbreviates: Z-138, 72 h, read-out: IC50 Z-138.
Where [13] appears, read: NCI-H460, 72 h, read-out: IC50 NCI-H460.
The mark [14] stands for this setting: K562, 72 h, read-out: IC50 K-562.
The mark [15] stands for this setting: HL-60, 72 h, read-out: IC50 HL-60.
[16] abbreviates: HCT-116, 72 h, read-out: IC50 HCT-116.
The mark [17] stands for this setting: LN-229, 72 h, read-out: IC50 LN-229.
[18] abbreviates: CAPAN-1, read-out: IC50 Capan-1.
Setting [19] is: NCI-H460, read-out: IC50 NCI-H460.
[20] abbreviates: HCT-116, read-out: IC50 HCT-116.

As to `Cc1nc(CNC(=O)c2ccccc2NCc2ccccc2)cc2c1[nH]c1ccccc12` [Compound 7, 2-(Benzylamino)-N-[(1-methyl-9H-pyrido[3,4-b]indol-3-yl)methyl]benzamide], the 50% inhibitory concentration (IC50) in assay [1] (setting [10]) was 27.5 ± 8.1 µM; in [2], 50.9 ± 2.7 µM; in assay [3] (setting [11]), 53.5 ± 6.7 µM; in assay [4] (setting [12]), 21 ± 10.1 µM; in assay [5] (setting [13]), 28.4 ± 4 µM; in assay [6] (setting [14]), 90.7 ± 18.5 µM. The IC50 in assay [7] (setting [15]) is 66.2 ± 18.3 µM; in assay [8] (setting [16]), 34.6 ± 6 µM; in assay [9] (setting [17]) it was 35.8 ± 9.3 µM.
In the case of `CN[C@@H]1C[C@H]2O[C@@](C)([C@@H]1OC)n1c3ccccc3c3c4c(c5c6ccccc6n2c5c31)C(=O)NC4` [STS, staurosporine, reference compound], the IC50 in assay [1] (setting [18]) amounted to 0.0382 ± 0.003 µM; in assay [5] (setting [19]) it was 0.0384 ± 0.003 µM; in assay [7] (HL-60, read-out: IC50 HL-60) it was 0.0598 ± 0.003 µM; in assay [8] (setting [20]), 0.0687 ± 0.003 µM.
Consider `COc1cc(NC(C)CCCNC(=O)c2ccc(Cl)cc2NC(=O)OC(C)(C)C)c2ncccc2c1` (stereo not drawn) [Compound 5, tert-Butyl {5-chloro-2-[[4-[(6-methoxyquinolin-8-yl)amino]pentyl]carbamoyl]phenyl}carbamate], for which the IC50 in assay [1] (setting [10]), in [2], in assay [3] (setting [11]), in [4] (setting [12]), in assay [5] (setting [13]) and in assay [6] (setting [14]) was greater than 100 µM in each case. Besides, the IC50 in assay [7] (setting [15]), in [8] (setting [16]) and in assay [9] (setting [17]) was greater than 100 µM in each case.
As to `Cc1nc(CNC(=O)c2cc(Br)ccc2N)cc2c1[nH]c1ccccc12` [Compound 19, 2-Amino-5-bromo-N-[(1-methyl-9H-pyrido[3,4-b]indol-3-yl)methyl]benzamide], the IC50 in assay [1] (setting [10]) worked out at 38.9 ± 5.8 µM; in assay [2], 82.6 ± 17.4 µM; in assay [3] (setting [11]) it was 68.3 ± 12.2 µM; in assay [4] (setting [12]), 55.5 ± 12.1 µM; in assay [5] (setting [13]), 55 ± 5 µM; in [6] (setting [14]), 64.9 ± 4.9 µM. Besides, the IC50 in [7] (setting [15]) came to 66.3 ± 34 µM; in assay [8] (setting [16]), 60.8 ± 31 µM; in [9] (setting [17]), 46.2 ± 7.5 µM.
`Cc1nc(CNC(=O)c2ccc(Cl)cc2N)cc2c1[nH]c1ccccc12` [Compound 18, 2-Amino-4-chloro-N-[(1-methyl-9H-pyrido[3,4-b]indol-3-yl)methyl]benzamide]: the IC50 in assay [1] (setting [10]) is 56.3 ± 24.1 µM; in assay [2] it was greater than 100 µM; in [3] (setting [11]), greater than 100 µM; in assay [4] (setting [12]) it was greater than 100 µM; in assay [5] (setting [13]), 43.8 ± 8.4 µM; in assay [6] (setting [14]), greater than 100 µM. The IC50 in [7] (setting [15]) is greater than 100 µM; in assay [8] (setting [16]) it was 55 ± 17.7 µM; in assay [9] (setting [17]) it was 44 ± 7.6 µM.
Turning to `COc1cc(NC(C)CCCNC(=O)c2ccc(Cl)cc2N)c2ncccc2c1` (stereo not drawn) [Compound 15, 2-Amino-4-chloro-N-{4-[(6-methoxyquinolin-8-yl)amino]pentyl}benzamide], the IC50 in assay [1] (setting [10]), in assay [2], in assay [3] (setting [11]), in assay [4] (setting [12]), in [5] (setting [13]) and in assay [6] (setting [14]) was greater than 100 µM each time. For the same compound, the IC50 in assay [7] (setting [15]), in assay [8] (setting [16]) and in assay [9] (setting [17]) was greater than 100 µM each time.
For the compound `CC(=O)O[C@@]12CO[C@@H]1C[C@H](O)[C@@]1(C)C(=O)[C@H](O)C3=C(C)[C@@H](OC(=O)[C@H](O)[C@@H](NC(=O)OC(C)(C)C)c4ccccc4)C[C@@](O)([C@@H](OC(=O)c4ccccc4)[C@H]21)C3(C)C` [DTX, docetaxel, reference compound], the IC50 came out at 0.01 ± 0.003 µM in [1] (setting [18]); 0.0055 ± 0.003 µM in assay [3] (DND41, read-out: IC50 DND-41); 0.0025 ± 0.003 µM in [4] (Z-138, read-out: IC50 Z-138); 0.0271 ± 0.003 µM in assay [5] (setting [19]); 0.0089 ± 0.003 µM in assay [6] (K562, read-out: IC50 K-562); 0.0137 ± 0.003 µM in [7] (HL-60, read-out: IC50 HL-60). The IC50 in [8] (setting [20]) is 0.0025 ± 0.003 µM; in [9] (LN-229, read-out: IC50 LN-229), 0.0018 ± 0.003 µM.
